{"source": "patent US12129252B1", "about": "“Pyrrolo[2,3-c][2,6]naphthyridine-8-carboxylic acids as CK2 inhibitors” (KING FAISAL UNIVERSITY, priority 2024, dated 2024)", "key": {"[1]": {"test_system": "MDA-MB-231 (breast)", "assay": "In vitro cytotoxic activity assay (MTT), MDA-MB-231", "type": "cell-based", "conditions": "Homo sapiens, cells exposed for 96 hours, 50 % inhibition of cell proliferation, read-out: Cytotoxicity activity IC50, MDA-MB-231 (breast)", "description": "(§1) Compounds 1-15 were screened for their in vitro cytotoxic activity utilizing a 3-(4,5-dimethyl-thiazol-2-yl)-2,5-diphenyltetrazolium bromide (MTT) assay against selected cancer human cell lines consisting of PC3 (prostate), HCT116 (colon), A375 (melanoma), H1299 (lung), MIAPaCa-2 (pancreas), HL60 (leukemia), MCF7 (breast), MDA-MB-231 (breast) (T. Mosmann, J. Immunol. Meth., 1983, 65, 55-63). The cells were cultured at 37° C. in RMPI1640 medium supplemented with 10% fetal bovine serum, 50 IU/mL penicillin, and 50 μg/mL streptomycin in a 5% CO2 incubator. All cells were sub-cultured 3 times/week by trypsinisation. Viable cells were seeded and allowed to adhere for 12 hours before a test drug was added in 96-well plates at an initial density of 1.0×10^5 cells/mL. Tumor cell lines were separately exposed to various concentrations of the tested compounds followed by incubation at a temperature of 37° C. during 96 hours inside a medium of fresh RMPI 1640. Cells were subsequently incubated at 37° C. using MTT at 0.5 mg/mL during 4 hours. After removal of supernatant, formazan crystals were dissolved in isopropanol and the optical density was measured at 570 nm. CX-4945 was used as a positive control."}, "[2]": {"test_system": "HL60 (leukemia)", "assay": "In vitro cytotoxic activity assay (MTT), HL60", "type": "cell-based", "conditions": "Homo sapiens, HL-60; cells exposed for 96 hours; 50 % inhibition of cell proliferation; read-out: Cytotoxicity activity IC50, HL60 (leukemia)", "description": "as §1"}, "[3]": {"test_system": "PC3 (prostate)", "assay": "In vitro cytotoxic activity assay (MTT), PC3", "type": "cell-based", "conditions": "Homo sapiens; cells exposed for 96 hours; 50 % inhibition of cell proliferation; read-out: Cytotoxicity activity IC50, PC3 (prostate)", "description": "as §1"}, "[4]": {"test_system": "MCF7 (breast)", "assay": "In vitro cytotoxic activity assay (MTT), MCF7", "type": "cell-based", "conditions": "Homo sapiens, cells exposed for 96 hours, 50 % inhibition of cell proliferation, read-out: Cytotoxicity activity IC50, MCF7 (breast)", "description": "as §1"}, "[5]": {"test_system": "A375 (melanoma)", "assay": "In vitro cytotoxic activity assay (MTT), A375", "type": "cell-based", "conditions": "Homo sapiens, A-375; cells exposed for 96 hours; 50 % inhibition of cell proliferation; read-out: Cytotoxicity activity IC50, A375 (melanoma)", "description": "as §1"}, "[6]": {"test_system": "HCT116 (colon)", "assay": "In vitro cytotoxic activity assay (MTT), HCT116", "type": "cell-based", "conditions": "Homo sapiens, HCT-116; cells exposed for 96 hours; 50 % inhibition of cell proliferation; read-out: Cytotoxicity activity IC50, HCT116 (colon)", "description": "as §1"}, "[7]": {"biological_target": "T1, recombinant human CK2 (RRββ-holoenzyme) (Homo sapiens, UniProt P68400)", "T1 construct": "purchased Millipore", "T1 sequence (P68400 whole entry)": "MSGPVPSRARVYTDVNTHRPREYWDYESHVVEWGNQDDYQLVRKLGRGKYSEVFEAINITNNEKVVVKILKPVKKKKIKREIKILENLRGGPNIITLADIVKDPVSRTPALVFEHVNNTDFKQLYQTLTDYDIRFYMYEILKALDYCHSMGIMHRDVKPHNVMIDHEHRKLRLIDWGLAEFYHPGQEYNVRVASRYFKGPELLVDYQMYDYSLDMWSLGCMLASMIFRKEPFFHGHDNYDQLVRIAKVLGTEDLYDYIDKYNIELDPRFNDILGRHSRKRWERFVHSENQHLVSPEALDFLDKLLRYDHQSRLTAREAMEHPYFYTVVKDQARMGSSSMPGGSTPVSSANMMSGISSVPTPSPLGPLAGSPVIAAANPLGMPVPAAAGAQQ", "T1 sequence (P67870 whole entry partner)": "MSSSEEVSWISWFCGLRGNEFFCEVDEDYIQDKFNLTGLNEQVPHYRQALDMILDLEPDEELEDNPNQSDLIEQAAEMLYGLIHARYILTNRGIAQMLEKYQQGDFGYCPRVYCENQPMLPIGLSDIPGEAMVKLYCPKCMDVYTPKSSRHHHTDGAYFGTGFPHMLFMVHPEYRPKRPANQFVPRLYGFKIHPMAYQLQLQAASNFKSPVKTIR", "assay": "CK2 Kinase Assay", "type": "biochemical", "conditions": "final ATP concentration 15 μM; 10 min at 30° C.; read-out: protein kinase CK2 inhibition IC50", "description": "CK2 Kinase Assay was conducted using the protocol as described in Pierre F. et al; J. Med. Chem. 2011, 54, 635-654. The tested compounds in aqueous solution were added at a volume of 10 μL to a reaction mixture comprising 10 μL of assay dilution buffer (ADB; 20 mM MOPS, pH 7.2, 25 mM β-glycerol phosphate, 5 mM EGTA, 1 mM sodium orthovanadate, and 1 mM dithiothreitol), 10 μL of substrate peptide (RRRDDDSDDD, dissolved in ADB at a concentration of 1 mM), 10 μL of recombinant human CK2 (RRββ-holoenzyme, 25 ng dissolved in ADB; Millipore). Reactions were initiated by the addition of 10 μL of ATP solution (90% 75 mMMgCl2, 75 μM ATP (final ATP concentration: 15 μM) dissolved in ADB; 10% [γ-33P] ATP (stock 1 mCi/100 μL; 3000 Ci/mmol (Perkin-Elmer) and maintained for 10 min at 30° C. The reactions were quenched with 100 μL of 0.75% phosphoric acid and then transferred to and filtered through a phosphor cellulose filter plate (Millipore). After washing each well five times with 0.75% phosphoric acid, the plate was dried under vacuum for 5 min and, following the addition of 15 μL of scintillation fluid to each well, the residual radioactivity was measured using a Wallac […] counter. The IC50 values were derived from eight concentrations of test inhibitors."}, "[8]": {"test_system": "H1299 (lung)", "assay": "In vitro cytotoxic activity assay (MTT), H1299", "type": "cell-based", "conditions": "Homo sapiens, NCI-H1299; cells exposed for 96 hours; 50 % inhibition of cell proliferation; read-out: Cytotoxicity activity IC50, H1299 (lung)", "description": "as §1"}, "[9]": {"test_system": "MIAPaCa-2 (pancreas)", "assay": "In vitro cytotoxic activity assay (MTT), MIAPaCa-2", "type": "cell-based", "conditions": "Homo sapiens, MIA PaCa-2; cells exposed for 96 hours; 50 % inhibition of cell proliferation; read-out: Cytotoxicity activity IC50, MIAPaCa-2 (pancreas)", "description": "as §1"}}, "data": [{"smiles": "O=C(O)c1cc2c(nc(Nc3cccc(Cl)c3)c3ccncc32)[nH]1", "note": "[Compound 1, 5-((3-chlorophenyl)amino)-7H-pyrrolo[2,3-c][2,6]naphthyridine-8-carboxylic Acid]", "values": [{"measurement": "IC50", "setting": "[1]", "result": 3800, "unit": "nM"}, {"measurement": "IC50", "setting": "[2]", "result": 2200, "unit": "nM"}, {"measurement": "IC50", "setting": "[3]", "result": 2100, "unit": "nM"}, {"measurement": "IC50", "setting": "[4]", "result": 3500, "unit": "nM"}, {"measurement": "IC50", "setting": "[5]", "result": 2900, "unit": "nM"}, {"measurement": "IC50", "setting": "[6]", "result": 1000, "unit": "nM"}, {"measurement": "IC50", "setting": "[7]", "result": 8, "unit": "nM"}, {"measurement": "IC50", "setting": "[8]", "result": 1300, "unit": "nM"}, {"measurement": "IC50", "setting": "[9]", "result": 900, "unit": "nM"}]}]}
